In patent US5387602A, “1.5-diphenyl-3-(N-hydroxycarbamoyloxyalkyl)pyrazoles” (Ortho Pharmaceutical Corporation, priority 1993, dated 1995):
pIC50: −log10 of the molar value.

Tests used:
[1] = biological target: T1, Sheep Seminal Vesicle Cyclooxygenase (Ovis aries, UniProt P05979); experiment: Procedure I: sheep seminal vesicle (SSV) cyclooxygenase inhibition; assay type: biochemical; conditions: for pIC50: SSV CO; for % INHIB. CO (Procedure I): dose 3 MPK unless otherwise stated (so in the source)
T1 construct: purchased Biomol (Plymouth Meeting, Pa.); host or cells: sheep seminal vesicle
T1 sequence (P05979 25-600): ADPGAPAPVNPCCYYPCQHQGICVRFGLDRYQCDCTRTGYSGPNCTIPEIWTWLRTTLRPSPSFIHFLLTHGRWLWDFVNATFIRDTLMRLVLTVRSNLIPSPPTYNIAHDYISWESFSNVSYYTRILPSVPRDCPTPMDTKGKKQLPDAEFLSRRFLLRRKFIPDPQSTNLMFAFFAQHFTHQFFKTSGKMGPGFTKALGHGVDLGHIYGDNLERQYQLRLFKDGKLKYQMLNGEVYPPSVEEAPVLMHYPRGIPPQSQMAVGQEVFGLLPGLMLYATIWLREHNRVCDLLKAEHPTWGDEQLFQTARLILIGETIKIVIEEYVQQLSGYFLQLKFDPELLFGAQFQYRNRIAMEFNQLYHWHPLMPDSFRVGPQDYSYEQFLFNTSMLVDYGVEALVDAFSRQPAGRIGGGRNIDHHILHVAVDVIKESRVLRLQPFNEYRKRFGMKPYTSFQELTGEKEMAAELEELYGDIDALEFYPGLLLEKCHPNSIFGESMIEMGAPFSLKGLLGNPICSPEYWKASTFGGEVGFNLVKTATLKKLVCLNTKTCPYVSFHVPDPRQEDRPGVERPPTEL
Procedure: Sheep Seminal Vesicle Cyclooxygenase Sheep seminal vesicle (SSV) cyclooxygenase (95% pure, prostaglandin endoperoxide synthase, EC 1.14.99.1 specific activity 24 units/mg protein) obtained as a lyophilized powder from Biomol (Plymouth Meeting, Pa.) was reconstituted at a concentration of 59 mg/mL in Hanks' Balanced Salt Solution (HBSS). The enzyme was divided into 200 μL aliquots, snap frozen with liquid N2, and stored at -70° C. until immediately prior to use. Measurements of CO activity were carried out in polypropylene tubes containing 495 μL of HBSS to which was added 5 μL Of inhibitor or dimethylsulfoxide (DMSO; vehicle control) and 6 μL of SSV CO solution. The tubes were mixed on a vortex shaker, preincubated for 5 min at 37° C. prior to the initiation of the reaction. The reaction was started by the addition of [^14 C]-arachidonic acid (1-^14 C-AA, Amersham, Arlington Heights, Ill.) in 10 μL of methanol. Tubes were again vortexed and incubated in a water bath for 20 minutes after which the tubes were removed and the reaction stopped by acidification with the addition of 1 mL 2M formic acid. Lipophilic products were extracted with 3 mL chloroform and concentrated to dryness under N2. Each pellet was reconstituted with 40 μL of chloroform and spotted on a Whatman Silicon thin-layer chromatography plate and developed in a chromatography tank containing A-9 solvent (11:5:2:1 V:V:V:V, ethyl acetate:trimethyl-pentane:acetic acid:double distilled-H2 O). Radioactive cyclooxygenase products (prostaglandin D2, prostaglandin E2, etc.) were measured using a Bioscan System 200 Imaging Scanner. Inhibition of enzyme activity was calculated by comparing the areas under the curve produced in the presence or absence of test compound. In the following tables, the superscripts indicate the number of experiments and, unless otherwise stated, the dose at which % inhibition is reported is 3 MPK.

[2] = biological target: T2, RBL-1 Cell Cyclooxygenase (Rattus norvegicus, UniProt Q63921); experiment: Procedure II: cyclooxygenase inhibition in disrupted RBL-1 cells (supernatant as enzyme source); assay type: biochemical; conditions: for pIC50: read-out: IC50 CO (Procedure II)
T2 construct: the supernatant was saved as the source of enzymes; endogenous in cells; host or cells: RBL-1 (rat basophilic leukemia cells), 10,000×g supernatant of homogenate
T2 sequence (Q63921 27-602): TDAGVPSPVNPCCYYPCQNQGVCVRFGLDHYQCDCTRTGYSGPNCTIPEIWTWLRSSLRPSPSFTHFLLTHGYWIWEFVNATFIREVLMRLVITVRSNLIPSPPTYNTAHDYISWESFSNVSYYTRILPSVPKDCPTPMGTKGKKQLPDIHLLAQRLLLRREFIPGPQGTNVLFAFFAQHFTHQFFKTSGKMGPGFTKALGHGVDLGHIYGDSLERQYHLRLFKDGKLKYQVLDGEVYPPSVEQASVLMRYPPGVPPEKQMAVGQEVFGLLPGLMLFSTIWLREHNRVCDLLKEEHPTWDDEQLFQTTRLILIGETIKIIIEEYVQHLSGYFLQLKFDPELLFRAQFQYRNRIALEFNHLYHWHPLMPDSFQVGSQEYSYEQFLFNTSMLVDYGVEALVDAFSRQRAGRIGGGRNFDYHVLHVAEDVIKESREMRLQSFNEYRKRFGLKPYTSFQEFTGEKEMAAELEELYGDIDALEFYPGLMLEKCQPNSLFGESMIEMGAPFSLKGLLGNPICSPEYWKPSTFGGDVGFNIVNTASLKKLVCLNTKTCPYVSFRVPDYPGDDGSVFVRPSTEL
Procedure: RBL-1 Cell 5-Lipoxygenase and Cyclooxygenase
Rat basophilic leukemia cells (RBL-1; 5×10^7 viable cells/mL) were disrupted by homogenization on ice (four 20 sec bursts) with a Brinkman polytron. Complete cell breakage was verified microscopically. The homogenate was then centrifuged at 10,000×g for 48 minutes at 4° C. The pellet was discarded and the supernatant was saved as the source of enzymes. The supernatant was pre-incubated for five minutes at 37° C. in the presence of 2 mM of CaCl2 and compound or vehicle (1% DMSO). The conversion of AA into 5-LO products was initiated by adding 10 μL (50 μCi) of 1-^14 C-AA to each tube and incubated at 37° C. for 20 minutes. The reaction was stopped by adjusting the pH of each sample to 3 to 3.5 with 2M formic acid. Samples were extracted with three volumes of chloroform to isolate the products of 5-LO formed during the reaction. Fractions were dried under nitrogen, then resuspended in 40 μL of chloroform and spotted onto silica gel HL plates. The plates were developed in A-9 solvent. The dried plates were analyzed using a Bioscan Imaging TLC scanner to determine the percentage of radiolabelled AA converted to 5-HETE in each sample.
In the following tables, the superscripts indicate the number of experiments and, unless otherwise stated, the dose at which % inhibition is reported is 3 MPK.

SMILES	pIC50 [1]	% INHIB. CO (Procedure I) [1] [%]	% INHIBITION CO (Procedure II) [2] [%]	pIC50 [2]
COc1ccc(-n2nc(COC(=O)N(O)C(C)C)c(Cl)c2-c2ccc(Cl)cc2)cc1 [1-I]	5.28	18	3	5.79
COc1ccc(-n2nc(COC(=O)N(C)O)c(Br)c2-c2ccc(C)cc2)cc1 [1-N]	6.05	100	100	5.94
COc1ccc(-n2nc(COC(=O)N(O)C(C)C)c(Br)c2-c2ccc(C)cc2)cc1 [1-O]	5.58	59	82	5.51
COc1ccc(-n2nc(COC(=O)N(C)O)c(Cl)c2-c2ccc(C)cc2)cc1 [1-Q]	5.67	93	82	6.68
COc1ccc(-n2nc(COC(=O)N(O)C(C)C)c(Cl)c2-c2ccc(C)cc2)cc1 [1-R]	–	11	8	5.42
COc1ccc(-n2nc(CCOC(=O)N(C)O)c(Cl)c2-c2ccc(Cl)cc2)cc1 [2-C]	5.73	100	41	5.57
COc1ccc(-n2nc(CCOC(=O)N(O)C(C)C)c(Cl)c2-c2ccc(Cl)cc2)cc1 [2-D]	6.54	63	1.5	6.60
COc1ccc(-n2nc(CCOC(=O)N(C)O)c(Br)c2-c2ccc(Cl)cc2)cc1 [2-E]	5.71	37	5.5	5.57
COc1ccc(-n2nc(CCOC(=O)N(O)C(C)C)c(Br)c2-c2ccc(Cl)cc2)cc1 [2-F]	6.32	58	4	6.39
COc1ccc(-n2nc(CCOC(=O)N(C)O)c(Cl)c2-c2ccc(C)cc2)cc1 [2-I]	5.46	80	52	5.70
COc1ccc(-n2nc(CCOC(=O)N(O)C(C)C)c(Cl)c2-c2ccc(C)cc2)cc1 [2-J]	5.35	88	42	6.32
COc1ccc(-n2nc(CCOC(=O)NO)c(Br)c2-c2ccc(C)cc2)cc1 [2-K]	–	21	35	6.39
COc1ccc(-n2nc(CCOC(=O)N(C)O)c(Br)c2-c2ccc(C)cc2)cc1 [2-L]	–	22	39	6.08

More lines, now with the values ahead:

pIC50 [1]	% INHIB. CO (Procedure I) [1] [%]	% INHIBITION CO (Procedure II) [2] [%]	pIC50 [2]	SMILES
5.65	43	34	6.74	COc1ccc(-n2nc(COC(=O)NO)cc2-c2ccc(Cl)cc2)cc1 [1-A]
6.14	100	52	5.85	COc1ccc(-n2nc(COC(=O)N(C)O)cc2-c2ccc(Cl)cc2)cc1 [1-B]
6.28	92	80	5.96	COc1ccc(-n2nc(COC(=O)N(O)C(C)C)cc2-c2ccc(Cl)cc2)cc1 [1-C]
5.51	43	36	6.52	COc1ccc(-n2nc(COC(=O)NO)c(Br)c2-c2ccc(Cl)cc2)cc1 [1-D]
6.13	100	43	6.77	COc1ccc(-n2nc(COC(=O)N(C)O)c(Br)c2-c2ccc(Cl)cc2)cc1 [1-E]
–	44	0	6.06	COc1ccc(-n2nc(COC(=O)N(O)C(C)C)c(Br)c2-c2ccc(Cl)cc2)cc1 [1-F]
–	28	18	6.02	COc1ccc(-n2nc(COC(=O)NO)c(Cl)c2-c2ccc(Cl)cc2)cc1 [1-G]
5.94	100	41	6.66	COc1ccc(-n2nc(COC(=O)N(C)O)c(Cl)c2-c2ccc(Cl)cc2)cc1 [1-H]
6.14	73	87	6.74	COc1ccc(-n2nc(COC(=O)NO)cc2-c2ccc(C)cc2)cc1 [1-J]
6.29	100	100	6.82	COc1ccc(-n2nc(COC(=O)N(C)O)cc2-c2ccc(C)cc2)cc1 [1-K]
6.38	100	64	5.77	COc1ccc(-n2nc(COC(=O)N(O)C(C)C)cc2-c2ccc(C)cc2)cc1 [1-L]
5.64	75	85	5.84	COc1ccc(-n2nc(COC(=O)NO)c(Br)c2-c2ccc(C)cc2)cc1 [1-M]
5.30	52	0	5.96	COc1ccc(-n2nc(COC(=O)NO)c(Cl)c2-c2ccc(C)cc2)cc1 [1-P]
5.70	100	44	5.71	COc1ccc(-n2nc(CCOC(=O)N(C)O)cc2-c2ccc(Cl)cc2)cc1 [2-A]
6.02	100	55	6.30	COc1ccc(-n2nc(CCOC(=O)N(O)C(C)C)cc2-c2ccc(Cl)cc2)cc1 [2-B]
6.39	100	100	6.40	COc1ccc(-n2nc(CCOC(=O)N(C)O)cc2-c2ccc(C)cc2)cc1 [2-G]
6.66	94	100	7.40	COc1ccc(-n2nc(CCOC(=O)N(O)C(C)C)cc2-c2ccc(C)cc2)cc1 [2-H]
